The target of assay [1] is IGF Type I receptor (IGFR) (Homo sapiens, UniProt P08069). As to the kind of experiment: Competitive receptor-binding assay, epitope-tagged IGF Type I receptor. How it is done: (§1) Relative activity may be defined by comparison of the dissociation constants (Keq) governing the hormone-receptor binding reaction.
(§2) Receptor-Binding Assays. […] This assay employs the purified epitope-tagged receptor (IR-A, IR-B, or IGFR) using a microtiter-plate antibody-capture assay as known in the art. The epitope tag consists of three tandem repeats of the FLAG epitope. Microtiter strip plates (Nunc Maxisorb) were incubated overnight at 4° C. with anti-FLAG IgG (100 μl/well of […] in phosphate-buffered saline). Binding data were analyzed by a single-site heterologous competition binding model. A corresponding microtiter plate antibody assay using the epitope-tagged IGF Type I receptor was employed to assess cross-binding of analogues to this homologous receptor.

Assay [2] has as its target insulin receptor isoform B (IR-B, HIRB) (Homo sapiens, UniProt P06213). As to the kind of experiment: Competitive receptor-binding assay, 125I-insulin tracer, epitope-tagged receptor antibody capture (IR-B). The conditions noted are these: normalized to 100% = binding affinity of wild-type human insulin for IR-A. How it is done:
as §1, §2

The target of assay [3] is insulin receptor isoform A (IR-A, HIRA) (Homo sapiens, UniProt P06213). As to the kind of experiment: Competitive receptor-binding assay, 125I-insulin tracer, epitope-tagged receptor antibody capture (IR-A). Conditions: ratio of IR-A to IR-B binding. On the procedure:
as §1, §2

The target in assay [4] is insulin receptor (Homo sapiens, UniProt P06213). The conditions noted are these: background; cited from earlier work.

“Also recorded” adds a separate entry of the source. Where two headings read alike, the source gives them in different places. Bounds are passed on as bounds.

Sequence of IGF Type I receptor (IGFR) (P08069 31-736 limits assumed): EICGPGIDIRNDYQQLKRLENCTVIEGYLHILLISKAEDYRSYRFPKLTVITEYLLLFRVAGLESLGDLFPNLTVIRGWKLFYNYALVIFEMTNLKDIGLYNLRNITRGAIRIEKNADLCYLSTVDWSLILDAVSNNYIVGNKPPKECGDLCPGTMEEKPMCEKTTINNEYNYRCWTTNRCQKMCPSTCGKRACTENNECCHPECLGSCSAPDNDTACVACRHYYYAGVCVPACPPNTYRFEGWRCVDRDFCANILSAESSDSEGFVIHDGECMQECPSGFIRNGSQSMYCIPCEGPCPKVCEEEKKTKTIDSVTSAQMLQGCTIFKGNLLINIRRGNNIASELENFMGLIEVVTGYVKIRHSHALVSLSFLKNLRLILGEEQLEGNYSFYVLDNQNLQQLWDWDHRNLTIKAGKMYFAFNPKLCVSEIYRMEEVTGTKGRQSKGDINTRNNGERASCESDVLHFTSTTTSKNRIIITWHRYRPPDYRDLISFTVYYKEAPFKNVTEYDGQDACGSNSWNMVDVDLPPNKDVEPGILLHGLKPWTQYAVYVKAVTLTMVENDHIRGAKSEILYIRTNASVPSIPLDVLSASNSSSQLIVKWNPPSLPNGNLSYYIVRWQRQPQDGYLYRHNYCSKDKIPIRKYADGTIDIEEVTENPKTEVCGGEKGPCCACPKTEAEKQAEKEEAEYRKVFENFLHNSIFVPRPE
Sequence of IGF Type I receptor (IGFR) (P08069 741-1367 partner limits assumed): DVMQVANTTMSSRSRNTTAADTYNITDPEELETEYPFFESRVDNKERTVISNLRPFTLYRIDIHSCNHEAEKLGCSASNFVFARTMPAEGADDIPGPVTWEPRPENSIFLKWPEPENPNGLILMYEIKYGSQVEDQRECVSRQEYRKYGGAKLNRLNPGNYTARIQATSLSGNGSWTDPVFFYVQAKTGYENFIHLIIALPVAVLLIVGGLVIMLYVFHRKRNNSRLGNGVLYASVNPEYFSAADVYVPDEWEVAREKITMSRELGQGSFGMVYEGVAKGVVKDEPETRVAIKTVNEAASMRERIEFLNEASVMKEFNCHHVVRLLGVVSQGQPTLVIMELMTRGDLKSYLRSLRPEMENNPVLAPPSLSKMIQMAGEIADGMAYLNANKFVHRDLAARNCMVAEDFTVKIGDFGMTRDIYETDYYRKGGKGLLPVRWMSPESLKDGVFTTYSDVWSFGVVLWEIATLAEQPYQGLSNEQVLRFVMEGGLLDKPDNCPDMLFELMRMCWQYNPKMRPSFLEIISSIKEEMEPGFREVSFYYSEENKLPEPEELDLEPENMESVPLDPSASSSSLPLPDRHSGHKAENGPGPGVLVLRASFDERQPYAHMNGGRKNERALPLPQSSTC

The Kd is the free concentration of one partner at which half of the binding sites on the other are occupied at equilibrium, for simple one-to-one binding. As for Lantus ®, the results for the “IGFR Relative Affinity” value in assay [1] (absolute number relative to IGF-1 (=1)) and in assay [1] (absolute number relative to unmodified human insulin (=1)) were 0.015 and 2-3, respectively. Besides, the Kd in assay [1] (read-out: IGFR Kd) came to 3.14 ± 0.44 nM.

As to insulin-like growth factor II [IGF-II], in assay [2], the “RELATIVE AFFINITY INSULIN RECEPTOR Isoform B” value stood at 4%. Also, the “selectivity / preference for IR-A relative to IR-B” value in assay [3] is “between fourfold and tenfold; also recorded: greater than twofold preference for IR-A”. The “affinity for either IR isoform relative to human insulin” value in assay [4] was less than 20%.

Take `CC[C@H](C)[C@@H]1NC(=O)CNC(=O)[C@H](CCCNC(=N)N)NC(=O)[C@H](CCCNC(=N)N)NC(=O)[C@@H]2CCCN2C(=O)CNC(=O)CNC(=O)CNC(=O)[C@H]([C@@H](C)O)NC(=O)[C@@H]2CCCN2C(=O)[C@H](CC(=O)O)NC(=O)[C@H]([C@@H](C)O)NC(=O)[C@H](Cc2ccc(O)cc2)NC(=O)[C@H](Cc2ccccc2)NC(=O)[C@H](Cc2ccccc2)NC(=O)CNC(=O)[C@H](CCCNC(=N)N)NC(=O)[C@H](CCC(=O)O)NC(=O)CNC(=O)[C@@H]2CSSC[C@@H](C(=O)N[C@@H](CC(N)=O)C(=O)O)NC(=O)[C@H](Cc3ccc(O)cc3)NC(=O)[C@H](CC(N)=O)NC(=O)[C@H](CCC(=O)O)NC(=O)[C@H](CC(C)C)NC(=O)[C@H](CCC(N)=O)NC(=O)[C@H](Cc3ccc(O)cc3)NC(=O)[C@H](CC(C)C)NC(=O)[C@H](CO)NC(=O)[C@@H]3CSSC[C@H](NC(=O)[C@H](CCC(N)=O)NC(=O)[C@H](CCC(=O)O)NC(=O)[C@H](C(C)C)NC1=O)C(=O)N[C@@H](CSSC[C@H](NC(=O)[C@H](CC(C)C)NC(=O)[C@H](Cc1c[nH]cn1)NC(=O)[C@H](CCC(N)=O)NC(=O)[C@H](CC(N)=O)NC(=O)[C@@H](NC(=O)[C@@H](N)Cc1ccccc1)C(C)C)C(=O)NCC(=O)N[C@@H](CO)C(=O)N[C@@H](Cc1c[nH]cn1)C(=O)N[C@@H](CC(C)C)C(=O)N[C@@H](C(C)C)C(=O)N[C@@H](CCC(=O)O)C(=O)N[C@@H](C)C(=O)N[C@@H](CC(C)C)C(=O)N[C@@H](Cc1ccc(O)cc1)C(=O)N[C@@H](CC(C)C)C(=O)N[C@@H](C(C)C)C(=O)N2)C(=O)N[C@@H](Cc1c[nH]cn1)C(=O)N[C@@H](CO)C(=O)N[C@@H]([C@@H](C)CC)C(=O)N3` [[His^A8, Asp^B28, Pro^B29]-SCI]: the Kd in assay [1] was 27.6 ± 1.18 nM.

These data come from patent US20110195896A1 (CASE WESTERN RESERVE UNIVERSITY, priority 2008, published 2011).
